Data as given in patent US11780830B2, “Triazolone derivatives or salts thereof and pharmaceutical compositions comprising the same” (YUHAN CORPORATION, priority 2018, dated 2023).
Where a name gives a salt, the structure may show the parent alone.

Legend:
Format in all cases: biochemical
recombinant human VAP-1 = biological target: T1, recombinant human VAP-1 (Homo sapiens, UniProt Q16853); experiment: Activity on recombinant human VAP-1, HRP-coupled Amplex Red hydrogen peroxide assay; details: substrate 1 mM benzylamine; compound incubated with enzyme at 37° C. for 30 minutes; pH 7.4; read-out: Inhibitory Activity (IC50, nM) human VAP-1
T1 construct: purchased R&D systems
T1 sequence (Q16853 1-763): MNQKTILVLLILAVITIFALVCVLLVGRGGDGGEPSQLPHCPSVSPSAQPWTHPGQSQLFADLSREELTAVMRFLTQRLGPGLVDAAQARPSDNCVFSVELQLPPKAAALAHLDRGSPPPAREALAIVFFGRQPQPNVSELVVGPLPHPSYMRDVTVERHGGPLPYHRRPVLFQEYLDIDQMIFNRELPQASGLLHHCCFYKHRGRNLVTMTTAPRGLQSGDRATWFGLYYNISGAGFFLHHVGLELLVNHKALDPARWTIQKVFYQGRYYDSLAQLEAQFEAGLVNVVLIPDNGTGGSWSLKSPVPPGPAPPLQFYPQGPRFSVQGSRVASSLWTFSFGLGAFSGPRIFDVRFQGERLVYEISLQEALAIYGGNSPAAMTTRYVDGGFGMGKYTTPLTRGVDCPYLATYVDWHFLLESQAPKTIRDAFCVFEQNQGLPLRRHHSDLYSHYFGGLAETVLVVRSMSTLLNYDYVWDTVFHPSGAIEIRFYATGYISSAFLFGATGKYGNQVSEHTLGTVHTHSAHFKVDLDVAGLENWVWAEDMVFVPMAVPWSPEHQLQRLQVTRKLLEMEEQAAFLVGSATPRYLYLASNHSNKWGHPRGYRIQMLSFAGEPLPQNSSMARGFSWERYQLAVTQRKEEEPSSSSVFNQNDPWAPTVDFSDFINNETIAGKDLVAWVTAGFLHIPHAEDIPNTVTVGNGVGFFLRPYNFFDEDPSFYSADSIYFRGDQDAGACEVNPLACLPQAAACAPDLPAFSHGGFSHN
Method in brief: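 Fluorescence of resorufin formed from H2O2 (ex 544 nm, em 590 nm) was tracked for 1-2 h after adding 1 mM benzylamine, 200 uM Amplex Red and 1 U/mL HRP to enzyme pretreated with compound for 30 min at 37 °C. IC50 values derive from four-variable logistic fits.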

[1] = biological target: T2, recombinant human MAO-A (monoamine oxidase-A) (Homo sapiens, UniProt P21397); experiment: Activity on recombinant human MAO-A, method similar to the VAP-1 assay; details: substrate 0.5 mM tyramine; read-out: Inhibitory Activity (IC50, nM) MAO-A
T2 construct: purchased Sigma-Aldrich
T2 sequence (P21397 1-527): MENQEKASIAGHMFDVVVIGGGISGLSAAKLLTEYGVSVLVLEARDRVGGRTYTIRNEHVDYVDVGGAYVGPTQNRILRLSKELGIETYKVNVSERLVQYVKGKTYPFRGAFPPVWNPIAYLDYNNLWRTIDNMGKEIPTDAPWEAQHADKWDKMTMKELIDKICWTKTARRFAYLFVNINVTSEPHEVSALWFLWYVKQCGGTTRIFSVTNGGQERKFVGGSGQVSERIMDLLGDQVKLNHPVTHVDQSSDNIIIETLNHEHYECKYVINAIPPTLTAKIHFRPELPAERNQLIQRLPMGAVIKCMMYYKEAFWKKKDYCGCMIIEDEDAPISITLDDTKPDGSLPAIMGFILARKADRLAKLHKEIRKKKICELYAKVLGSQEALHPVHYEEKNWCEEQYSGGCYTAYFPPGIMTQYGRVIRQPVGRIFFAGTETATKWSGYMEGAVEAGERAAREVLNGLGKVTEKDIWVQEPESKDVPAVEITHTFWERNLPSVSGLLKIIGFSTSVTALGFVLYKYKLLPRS
Method in brief: (§1)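 Fluorescence (544/590 nm) of resorufin formed from Amplex Red by HRP and enzyme-generated H2O2 was followed over 1-2 h. Substrates were 0.5 mM tyramine for MAO-A and 1 mM benzylamine for MAO-B; compounds were preincubated with enzyme for 30 min at 37° C. IC50 came from four-parameter logistic fitting of signal-rate inhibition.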

[2] = biological target: T3, recombinant human MAO-B (monoamine oxidase-B) (Homo sapiens, UniProt P27338); experiment: Activity on recombinant human MAO-B, method similar to the VAP-1 assay; details: substrate 1 mM benzylamine; read-out: Inhibitory Activity (IC50, nM) MAO-B
T3 construct: purchased Sigma-Aldrich
T3 sequence (P27338 1-520): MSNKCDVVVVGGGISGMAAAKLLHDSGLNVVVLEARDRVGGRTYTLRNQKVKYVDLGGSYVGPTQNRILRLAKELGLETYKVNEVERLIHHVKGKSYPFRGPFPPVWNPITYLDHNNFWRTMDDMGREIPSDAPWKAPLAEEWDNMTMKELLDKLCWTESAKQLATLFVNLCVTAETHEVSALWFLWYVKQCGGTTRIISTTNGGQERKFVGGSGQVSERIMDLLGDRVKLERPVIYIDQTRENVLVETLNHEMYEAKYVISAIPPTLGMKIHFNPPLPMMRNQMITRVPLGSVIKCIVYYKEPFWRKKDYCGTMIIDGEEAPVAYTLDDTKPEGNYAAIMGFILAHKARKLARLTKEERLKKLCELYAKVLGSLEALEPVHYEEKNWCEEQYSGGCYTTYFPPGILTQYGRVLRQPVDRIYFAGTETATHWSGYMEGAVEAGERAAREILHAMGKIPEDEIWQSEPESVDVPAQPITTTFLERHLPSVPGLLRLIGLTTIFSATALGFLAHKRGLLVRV
Method in brief: as §1

[3] = biological target: T4, recombinant human DAO (diamine oxidase) (Homo sapiens, UniProt P19801); experiment: Activity on recombinant human DAO, method similar to the VAP-1 assay; details: substrate 1 mM putrescine; read-out: Inhibitory Activity (IC50, nM) DAO
T4 construct: purchased R&D systems
T4 sequence (P19801 20-751): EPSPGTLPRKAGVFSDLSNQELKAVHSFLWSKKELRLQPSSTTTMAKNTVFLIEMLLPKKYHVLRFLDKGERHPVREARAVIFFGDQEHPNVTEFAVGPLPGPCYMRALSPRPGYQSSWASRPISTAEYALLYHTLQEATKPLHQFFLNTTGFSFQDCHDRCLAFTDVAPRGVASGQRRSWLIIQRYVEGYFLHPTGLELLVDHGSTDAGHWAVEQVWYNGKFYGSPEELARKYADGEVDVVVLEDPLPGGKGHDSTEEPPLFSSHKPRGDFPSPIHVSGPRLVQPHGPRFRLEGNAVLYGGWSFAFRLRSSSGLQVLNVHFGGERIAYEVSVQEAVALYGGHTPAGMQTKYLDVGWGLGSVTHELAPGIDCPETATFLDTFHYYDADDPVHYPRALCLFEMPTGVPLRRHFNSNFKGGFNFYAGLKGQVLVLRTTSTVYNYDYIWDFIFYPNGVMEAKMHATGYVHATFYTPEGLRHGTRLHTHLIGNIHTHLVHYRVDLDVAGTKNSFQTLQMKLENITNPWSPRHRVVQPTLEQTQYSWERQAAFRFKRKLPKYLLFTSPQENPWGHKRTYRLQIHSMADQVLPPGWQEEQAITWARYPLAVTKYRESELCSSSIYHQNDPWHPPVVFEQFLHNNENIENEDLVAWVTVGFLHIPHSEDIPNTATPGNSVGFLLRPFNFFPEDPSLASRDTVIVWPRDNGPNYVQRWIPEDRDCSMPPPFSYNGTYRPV
Method in brief: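 Inhibition of recombinant human diamine oxidase (DAO, R&D systems) was assessed by the same approach as the VAP-1 assay, using 1 mM putrescine as substrate. Hydrogen peroxide formed was detected through an HRP-coupled Amplex Red reaction yielding fluorescent resorufin, read at 544 nm excitation and 590 nm emission. IC50 values came from four-parameter logistic fitting in GraphPad Prism.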

Compound | IC50 (recombinant human VAP-1) [nM] | IC50 [1] [nM] | IC50 [2] [nM] | IC50 [3] [nM]
CC(C)(C)NS(=O)(=O)c1cncc(-c2ccc(Cn3cnn(C/C(=C/F)CN)c3=O)s2)c1 [Example 43, 5-[5-(1-[(2E)-2-(aminomethyl)-3-fluoroprop-2-en-1-yl]-5-oxo-1,5-dihydro-4H-1,2,4-triazol-4-ylmethyl)thiophen-2-yl]-N-tert-butylpyridin-3-sulfonamide hydrochloride] | 4.1 | > 100000 | > 10000 | 110
COc1ccc(-c2ccc(Cn3cnn(C/C(=C/F)CN)c3=O)s2)cn1 [Example 45, 2-[(2E)-2-(aminomethyl)-3-fluoroprop-2-en-1-yl]-4-[5-(6-methoxypyridin-3-yl)thiophen-2-yl]methyl-2,4-dihydro-3H-1,2,4-triazol-3-one hydrochloride] | 1.1 | > 100000 | 400 | 330
CSc1ccc(-c2ccc(Cn3cnn(C/C(=C/F)CN)c3=O)s2)cn1 [Example 46, 2-[(2E)-2-(aminomethyl)-3-fluoroprop-2-en-1-yl]-4-(5-[6-(methylsulfanyl)pyridin-3-yl]thiophen-2-ylmethyl)-2,4-dihydro-3H-1,2,4-triazol-3-one hydrochloride] | 1.3 | > 10000 | 740 | 380
NC/C(=C\F)Cn1ncn(Cc2ccc(-c3ccc(OCC(F)(F)F)nc3)s2)c1=O [Example 47, 2-[(2E)-2-(aminomethyl)-3-fluoroprop-2-en-1-yl]-4-(5-[6-(2,2,2-trifluoroethoxy)pyridin-3-yl]thiophen-2-ylmethyl)-2,4-dihydro-3H-1,2,4-triazol-3-one hydrochloride] | 4.7 | > 100000 | 980 | 530
NC/C(=C\F)Cn1ncn(Cc2ccc(-c3ccc(C(F)(F)F)nc3)s2)c1=O [Example 49, 2-[(2E)-2-(aminomethyl)-3-fluoroprop-2-en-1-yl]-4-(5-[6-(trifluoromethyl)pyridin-3-yl]thiophen-2-ylmethyl)-2,4-dihydro-3H-1,2,4-triazol-3-one hydrochloride] | 0.5 | > 100000 | 360 | 98
N#Cc1ccc(-c2ccc(Cn3cnn(C/C(=C/F)CN)c3=O)s2)cn1 [Example 50, 5-[5-(1-[(2E)-2-(aminomethyl)-3-fluoroprop-2-en-1-yl]-5-oxo-1,5-dihydro-4H-1,2,4-triazol-4-ylmethyl)thiophen-2-yl]pyridine-2-carbonitrile hydrochloride] | 0.5 | > 100000 | 3700 | 360
NC/C(=C\F)Cn1ncn(Cc2ccc(-c3ccc(N4CCCCC4)nc3)s2)c1=O [Example 52, 2-[(2E)-2-(aminomethyl)-3-fluoroprop-2-en-1-yl]-4-(5-[6-(piperidin-1-yl)pyridin-3-yl]thiophen-2-ylmethyl)-2,4-dihydro-3H-1,2,4-triazol-3-one hydrochloride] | 0.8 | > 100000 | 640 | 170
CN(C)c1ncc(-c2ccc(Cn3cnn(C/C(=C/F)CN)c3=O)s2)cn1 [Example 55, 2-[(2E)-2-(aminomethyl)-3-fluoroprop-2-en-1-yl]-4-(5-[2-(dimethylamino)pyrimidin-5-yl]thiophen-2-ylmethyl)-2,4-dihydro-3H-1,2,4-triazol-3-one hydrochloride] | 0.5 | > 100000 | 6400 | 180
CSc1ncc(-c2ccc(Cn3cnn(C/C(=C/F)CN)c3=O)s2)cn1 [Example 56, 2-[(2E)-2-(aminomethyl)-3-fluoroprop-2-en-1-yl]-4-(5-[2-(methylsulfanyl)pyrimidin-5-yl]thiophen-2-ylmethyl)-2,4-dihydro-3H-1,2,4-triazol-3-one hydrochloride] | 0.4 | > 100000 | 4200 | 40
NC/C(=C\F)Cn1ncn(Cc2ccc(-c3cnc(N4CCOCC4)nc3)s2)c1=O [Example 57, 2-[(2E)-2-(aminomethyl)-3-fluoroprop-2-en-1-yl]-4-(5-[2-(morpholin-4-yl)pyrimidin-5-yl]thiophen-2-ylmethyl)-2,4-dihydro-3H-1,2,4-triazol-3-one hydrochloride] | 2.2 | 6600 | 1600 | 83
CN1CC=C(c2ccc(Cn3cnn(C/C(=C/F)CN)c3=O)s2)CC1 [Example 58, 2-[(2E)-2-(aminomethyl)-3-fluoroprop-2-en-1-yl]-4-[5-(1-methyl-1,2,3,6-tetrahydropyridin-4-yl)thiophen-2-yl]methyl-2,4-dihydro-3H-1,2,4-triazol-3-one hydrochloride] | 3.9 | > 100000 | > 10000 | 780
CC(=O)N1CC=C(c2ccc(Cn3cnn(C/C(=C/F)CN)c3=O)s2)CC1 [Example 59, 4-[[5-(1-acetyl-3,6-dihydro-2H-pyridin-4-yl)-2-thienyl]methyl]-2-[(E)-2-(aminomethyl)-3-fluoro-allyl]-1,2,4-triazol-3-one] | 0.5 | > 100000 | 990 | 1300
